Results from US20230372337A1, “Combination Therapy Comprising an AXL Inhibitor” (BERGENBIO ASA, priority 2020, published 2023).
Like-named read-outs stand apart in the source and are kept apart here.

Columns and labels:
LL2 cells [1] = experiment: Resazurin viability assay of LL2 cells (Example 4); format: cell-based, mouse
Protocol: (§1) 4T1 cells (ATCC, CRL-2539) were cultured in RPMI-1640 (Sigma, Cat. #R8758) supplemented with 10% fetal bovine serum (FBS), L-glutamine (4 mM), streptomycin (5 μg/ml) and penicillin (5 U/ml). […] Lewis lung carcinoma cells LL/2 (LLC1) (ATCC, CRL-1642™) were cultured in Dulbecco's Modified Eagle's Medium ATCC® 30-2002™ (4 mM L-glutamine, 4500 mg/L glucose, 1 mM sodium pyruvate, and 1500 mg/L sodium bicarbonate).
(§2) The IC50 of the different drugs were calculated by resazurin viability assay. […] The cells were treated for 48 hours.

LL2 cells [2] = experiment: qRTPCR of IFN related genes in Lewis lung carcinoma (LL2) cells in vitro (Example 4); format: cell-based, mouse
Protocol: as §1
RNA was extracted from snap frozen tumors using the RNEasy Microarray Tissue Mini kit from Qiagen following the manufacturer's instructions. As tumors contained Doxorubicin and powderizing them could expose personnel to harmful substances, the RNA was extracted in a closed system using the GentleMACS dissociator and M Tubes. Purity and concentration of RNA was measured using Nanodrop. RT^2 Profiler™ PCR Array. cDNA was synthesized from RNA using the RT^2 First Strand kit (Qiagen) according to the manufacturer's instructions. cDNA was mixed with RT^2 SYBR Green Mastermix (Qiagen) and loaded into RT^2 Profiler™ PCR Array Mouse Type I Interferon Response or RT^2 Profiler™ PCR Array Mouse Epithelial to Mesenchymal Transition (EMT), analyzing the expression of the genes listed in Table 17. The plates were analyzed using Light Cycler 480 (Roche) and data were analyzed using the Qiagen Data Analysis Centre and Graph Pad (Prism).
Chemotherapeutic agents commonly used to treat lung cancer patients were evaluated for effects on the IFN response. Cisplatin, navelbine and docetaxel were tested in vitro in combination with bemcentinib.
as §2

[3] = tested on: 4T1 mammary carcinoma cells; experiment: Tumor growth, 4T1 model (Example 2); design: species or system Balb/c mice; conditions: short in vivo study, single i.t. injection day 15
Protocol: Tumor growth was measured with a digital handheld caliper twice weekly from emergence of tumor and until the day of euthanasia

Yumm1.7 cells = experiment: qRTPCR of IFN related genes in Yumm1.7 cells in vitro (Example 4); format: cell-based, mouse; conditions: Yumm1.7 cells; DMXAA treatment; 13 ISG tested
43 mouse cytokines = experiment: Plasma cytokines, ProcartaPlex Multiplex Immunoassay (Luminex) (Example 2); format: in vivo, Balb/c mice; conditions: DMXAA, 48 h post injection, treated groups
Protocol: The manufacturer user guide was followed. The samples were analyzed by (MAGPIX) and the results were obtained as concentration in pg/ml of mouse plasma. At least 3 samples per group, 4 for many, were analyzed.

4T1 cells = experiment: qRTPCR of IFN related genes in 4T1 cells in vitro (Example 4); format: cell-based, mouse; conditions: with or without bemcentinib
[4] = tested on: type I IFN related genes (ISG); experiment: RT2 Profiler PCR Array Mouse Type I Interferon Response on 4T1 tumors (Example 2); format: in vivo, Balb/c mice
Excerpt: Bemcentinib was given as a loading dose for 3 days (11-13 after tumor implantation) and then as a standard dose until sacrifice.
9 mice have been excluded of the study because of the absence of tumor on day 11. On day 11 post implantation half of the cages were placed in the bemcentinib treated group and the other half in the […]. The average tumor volume when bemcentinib treatment was initiated (day 11) was 54.99 mm^3. […] The tumor volumes when bemcentinib treatment was initiated and the day of randomization are recorded in table 8. The intra tumomoral injection of doxorubicin and sting agonists was adjusted to the tumor volume.
Doxorubicin is provided in a 2 mg/ml solution. As it is technically challenging to inject 50 ul liquid into tumors measuring <100 mm^3, the total dosing volume was calculated based on the following formula: V=50 ul×(TV/120). This is done to minimize variability due to leakage during intratumoral injection. For the 1 mg/kg dose (E,F) Doxorubicin was given at a concentration of 0.5 mg/ml, which corresponds to 1 mg/kg for a 25 g mouse with a tumor of 120 mm^3, and 1 mg/kg for a 20 g mouse with a tumor of 100 mm^3. For 3 mg/kg dose (G,H), a solution of 1.5 mg/ml was used and same volumes was injected. For the 6 mg/kg dose (I,J) the commercial solution of 2 mg/ml will be used and 75 ul was injected for tumor with a volume of 120 mm^3.
The same formula as for doxorubicin was used V=50 ul×(TV/120).
RNA was extracted from […] snap frozen tumors using the RNEasy Microarray Tissue Mini kit from Qiagen following the manufacturer's instructions. As tumors contained Doxorubicin and powderizing them could expose personnel to harmful substances, the RNA was extracted in a closed system using the GentleMACS dissociator and M Tubes. Purity and concentration of RNA was measured using Nanodrop. cDNA was synthesized from RNA using the RT^2 First Strand kit (Qiagen) according to the manufacturer's instructions. cDNA was mixed with RT^2 SYBR Green Mastermix (Qiagen) and loaded into RT Profiler™ PCR Array Mouse Type I Interferon Response or RT^2 Profiler™ PCR Array Mouse Epithelial to Mesenchymal Transition (EMT), analyzing the expression of 84 genes listed in Tables 9 and 10. The plates were analyzed using Light Cycler 480 (Roche) and data were analyzed using the Qiagen Data Analysis Centre and Graph Pad (Prism).
Quiagen RT^2 software was used to analyze all the samples from different groups. To be able to generate heatmaps and graph on fold change including error bars, the data have been analyzed manually with Graph Pad (Prism) when the Quiagen RT^2 software gave significant results between the different groups. For IFN type 1 response 1 mg/kg 48, 72 h and 3 mg/kg 48 h, were analyzed manually. For EMT, 1 mg/kg 48, 72 h, 3 mg/kg 72 h. When the data have been analyzed manually, the results are presented as histograms of mRNA fold changes. For the time points and doses analyzed by the software, the results are presented as tables.
GraphPadPrism was used to generate the heat maps, graphs with mRNA fold change, and to make the statistics. Multiple TTests, paired were performed on ΔΔ Ct values.
The expression of type I IFN related genes (ISG) was assessed in tumors collected 24, 48 and 72 hours after i.t. doxorubicin treatment. 3 groups were compared per timepoint: bemcentinib (bern), doxorubicin only (dox) and doxorubicin combined with bemcentinib (doxbern), the fold changes were compared with the control groups injected with PBS, and the fold change was 1 for the control groups.

[5] = in the presence of bemcentinib, read-out: IC50 with bem
[6] = Mus musculus, LL/2, read-out: IC50 without bem

Structure (SMILES): N.N.[Cl][Pt][Cl] [Cisplatin, cisplatin]
- IC50 (LL2 cells [1]; [5]): 4650 nM
- IC50 (LL2 cells [1]; read-out: IC50 without bem): 6190 nM
- ISGs upregulated compared to control (number) (LL2 cells [2]; cisplatin 5 uM, 48 hours): 11

Structure (SMILES): Cc1ccc2c(=O)c3cccc(CC(=O)O)c3oc2c1C [DMXAA, 5,6-Dimethylxanthenone-4-acetic Acid]
- Tumor growth [3]: decreased tumor growth
- IC50 without bem (LL2 cells [1]): No effect
- IC50 with bem (LL2 cells [1]; in the presence of bemcentinib): No effect
- ISG upregulated (number) (Yumm1.7 cells): 4
- Cytokines with different concentration compared with controls (number) (43 mouse cytokines): 8
- IFN response after DMXAA stimulation (4T1 cells): No significant changes
- ISG upregulated compared to control (number) (LL2 cells [2]; DMXAA 25 ug/ml, 48 hours): 20
- ISG significantly upregulated compared to control (number) ([4]; 24 hours after DMXAA i.t. treatment): 8
- ISG upregulated (number) ([4]; 48 hours after DMXAA injection): 1

Structure (SMILES): CC(=O)O[C@@]12CO[C@@H]1C[C@H](O)[C@@]1(C)C(=O)[C@H](O)C3=C(C)[C@@H](OC(=O)[C@H](O)[C@@H](NC(=O)OC(C)(C)C)c4ccccc4)C[C@@](O)([C@@H](OC(=O)c4ccccc4)[C@H]21)C3(C)C [Docetaxel, docetaxel]
- IC50 (LL2 cells [1]; [6]): 14.1 nM
- IC50 (LL2 cells [1]; [5]): 7.26 nM
- ISG significantly upregulated compared to control (number) (LL2 cells [2]; docetaxel 5 nM): 2

Structure (SMILES): CCC1=C[C@@H]2CN(C1)Cc1c([nH]c3ccccc13)[C@@](C(=O)OC)(c1cc3c(cc1OC)N(C)[C@H]1[C@@](O)(C(=O)OC)[C@H](OC(C)=O)[C@]4(CC)C=CCN5CC[C@]31[C@@H]54)C2 [Navelbine, vinorelbine]
- IC50 (LL2 cells [1]; [6]): 10.1 nM
- IC50 (LL2 cells [1]; [5]): 0.752 nM
- ISG upregulated (number) (LL2 cells [2]; navelbine 1 nM, 48 hours): Four
